Results: PubChem BioAssay (NCI)
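Interpolation was linear, between the two tested concentrations surrounding the appropriate level; five concentrations were tested over 48 hours in 96-well plates. Here, GI50 denotes the concentration required for 50% inhibition of growth. TGI marks complete inhibition of growth.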

Tests used:
Assay in all cases: NCI anticancer screen, dose series, 48 h
DU-145 prostate = test system: DU-145 prostate
LXFL 529 NSCLC = test system: LXFL 529 NSCLC
DLD-1 colon = test system: DLD-1 colon
XF 498 CNS = test system: XF 498 CNS
DMS 273 small cell lung = test system: DMS 273 small cell lung
KM20L2 colon = test system: KM20L2 colon
MDA-N = test system: MDA-N
HOP-18 NSCLC = test system: HOP-18 NSCLC

CCC(c1cccc(O)c1)C(CC)c1cccc(O)c1 (stereo unspecified)
GI50 (DU-145 prostate): 11 µM
TGI (DU-145 prostate): 29.9 µM

COc1ccc(Cl)cc1Nc1nc(C(F)(F)F)ccc1C(=O)N/N=C/c1cc(OC)c(OC)c(OC)c1
GI50 (DU-145 prostate): 4.27 µM
TGI (DU-145 prostate): > 100 µM

O=c1ccc(=O)c2c(=O)c3ccccc3c(=O)c1=2
TGI (LXFL 529 NSCLC): > 100 µM
TGI (DLD-1 colon): > 100 µM
TGI (XF 498 CNS): > 100 µM
TGI (DMS 273 small cell lung): > 100 µM

O=C([CH-]C(=O)C(F)(F)F)c1ccccc1.O=C([CH-]C(=O)C(F)(F)F)c1ccccc1.O=C([CH-]C(=O)C(F)(F)F)c1ccccc1.O=C([CH-]C(=O)C(F)(F)F)c1ccccc1.[Eu+3].c1ccncc1
GI50 (KM20L2 colon): 26.7 µM
TGI (KM20L2 colon): > 100 µM
GI50 (LXFL 529 NSCLC): 4.2 µM
TGI (LXFL 529 NSCLC): > 100 µM
GI50 (DLD-1 colon): 7.12 µM
TGI (DLD-1 colon): > 100 µM
GI50 (DMS 273 small cell lung): 8.87 µM
TGI (DMS 273 small cell lung): > 100 µM

C/C(=N\NC(N)=S)c1nc2ccc(Cl)cc2[nH]1
GI50 (DU-145 prostate): 1.97 µM
TGI (DU-145 prostate): 8.8 µM

Cn1c(=O)c2c(ncn2CN2CCN(Cn3cnc4c3c(=O)n(C)c(=O)n4C)CC2)n(C)c1=O
TGI (DU-145 prostate): > 100 µM
TGI (MDA-N): > 100 µM

COc1ccc(Cn2c(Cl)c(/C=C3/C(=O)Nc4ccccc43)c3cc(OC)c(C)cc32)cc1
GI50 (DU-145 prostate): 18.1 µM
TGI (DU-145 prostate): > 100 µM

CSc1ccc(/C=C2\C=C(CC(=O)NCc3ccc(C(=O)c4ccccc4)cc3)c3cc(F)ccc32)cc1
GI50 (DU-145 prostate): 0.0401 µM
TGI (DU-145 prostate): 0.877 µM

Cc1cc2c(=O)c3ccccc3[nH]c2c(C(=O)O)c1C
TGI (KM20L2 colon): > 100 µM
TGI (LXFL 529 NSCLC): > 100 µM
TGI (DLD-1 colon): > 100 µM
TGI (XF 498 CNS): > 100 µM
TGI (DMS 273 small cell lung): > 100 µM

C=C(C=O)CCCC(C)[C@@H]1CCC23CC12CCC1[C@@]2(C)CCC(OC(C)=O)C(C)(C)C2CC(OC2OC(COC(C)=O)C(O)C(O)C2O)[C@]13C (stereo partly specified)
TGI (KM20L2 colon): 12.8 µM
TGI (HOP-18 NSCLC): 16.1 µM
TGI (LXFL 529 NSCLC): 8.44 µM
TGI (DMS 273 small cell lung): 13.3 µM

OCC1OC(n2cnc3c(/C=C(/O)c4ccccc4)ncnc32)C(O)C1O (stereo unspecified)
TGI (DU-145 prostate): > 100 µM
TGI (MDA-N): > 100 µM

C[N+]1(C)C/C(=C\c2ccncc2)C(=O)/C(=C/c2ccncc2)C1
TGI (KM20L2 colon): > 100 µM
TGI (HOP-18 NSCLC): > 100 µM
TGI (LXFL 529 NSCLC): > 100 µM
TGI (DLD-1 colon): > 100 µM
TGI (DMS 273 small cell lung): > 100 µM

COc1cc(Cn2c(-c3nonc3N)nc3ccccc32)ccc1C
GI50 (DU-145 prostate): 0.605 µM
TGI (DU-145 prostate): > 37.8 µM

O=C1c2ccccc2-n2c1nc1ccccc1c2=O
TGI (DU-145 prostate): 24 µM
TGI (MDA-N): 32.4 µM

Cc1cc(-c2nnc3n2CCCCC3)c(C)n1-c1ccc(Cl)c(Cl)c1
GI50 (DU-145 prostate): 27.6 µM
TGI (DU-145 prostate): > 100 µM

CC(C)Oc1cc(O)c2c(c1)OCC=C2CCC(=O)O
TGI (DU-145 prostate): > 100 µM
TGI (MDA-N): 54.7 µM

COC(=O)C1=C(C(=O)OC)SC(=C(Cl)C(=S)Sc2ccccc2N)S1
GI50 (DU-145 prostate): 4.14 µM
TGI (DU-145 prostate): 43.7 µM

N#C[C@@H]1C(n2ccc(N)nc2=O)O[C@H](CO)[C@H]1O (stereo partly specified)
GI50 (DU-145 prostate): 5.02 µM
TGI (DU-145 prostate): > 100 µM

O=[N+]([O-])c1ccc2c(c1)[O][Sn]([I])([I])[O]2
GI50 (KM20L2 colon): > 100 µM
TGI (KM20L2 colon): > 100 µM
GI50 (DLD-1 colon): > 100 µM
TGI (DLD-1 colon): > 100 µM
GI50 (DMS 273 small cell lung): 71.1 µM
TGI (DMS 273 small cell lung): > 100 µM

CC1CCN(CC(=O)N2c3ccccc3Sc3cc4ccccc4cc32)CC1
TGI (DU-145 prostate): > 100 µM
TGI (MDA-N): > 100 µM

COC(=O)CCC1=C(C)/C(=C/c2[nH]c(-c3ccc[nH]3)cc2OC)N=C1C
GI50 (DU-145 prostate): 2.17 µM
TGI (DU-145 prostate): 15.1 µM

COC(=O)c1c(-c2ccccc2)sc(-c2cccc3ccccc23)c1C(=O)OC
TGI (KM20L2 colon): > 100 µM
TGI (HOP-18 NSCLC): > 100 µM
TGI (LXFL 529 NSCLC): > 100 µM
TGI (DLD-1 colon): > 100 µM
TGI (DMS 273 small cell lung): > 100 µM

O=C1CCCN1CC#CCN1CCCC1
GI50 (DU-145 prostate): > 100 µM
TGI (DU-145 prostate): > 100 µM

CCCCCCN(CCCCCC)CC(O)c1ccc2c3c(cccc13)CC2 (stereo unspecified)
GI50 (DU-145 prostate): 11.6 µM
TGI (DU-145 prostate): 24.7 µM

CN=C1SC(=Nc2ccc(N(C)C)cc2)N1C
TGI (HOP-18 NSCLC): > 100 µM
TGI (LXFL 529 NSCLC): > 100 µM
TGI (DLD-1 colon): > 100 µM
TGI (DMS 273 small cell lung): > 100 µM

CC(=O)Nc1ccc(S(=O)(=O)NNC(=O)c2cccnc2Nc2ccc(Cl)cc2)cc1
GI50 (DU-145 prostate): 34.3 µM
TGI (DU-145 prostate): > 100 µM

C=C1C(=O)O[C@H]2C[C@@]3(C)[C@H](O)CCC(=C)[C@@H]3[C@@H](OC(C)=O)[C@H]12
TGI (DU-145 prostate): 26.6 µM
TGI (MDA-N): 20.6 µM

O=C1CC(=O)OC(c2ccc([N+](=O)[O-])cc2)O1
GI50 (DU-145 prostate): 1.63 µM
TGI (DU-145 prostate): 3.2 µM

CC(C)[C@H]1C(=O)N[C@@H](CCCN=C(N)N)C(=O)NCC(=O)N[C@@H](CC(=O)O)C(=O)N[C@H](Cc2ccccc2)C(=O)N1C
GI50 (DU-145 prostate): 7.66 µM
TGI (DU-145 prostate): 70.6 µM

COC1CC(OC(=O)c2ccccc2)C(OC(=O)c2ccccc2)C(C)O1 (stereo unspecified)
TGI (DU-145 prostate): > 100 µM
TGI (MDA-N): > 100 µM

O=C1Nc2cccc3cc(NCC(O)CCl)cc1c23 (stereo unspecified)
TGI (DU-145 prostate): > 100 µM
